According to patent publication US5696276A, “Process for preparing 5,8-dihydroxynaphthoquinone derivatives, novel 5,8-dihydroxynaphthoquinone derivatives and their use as anticancer agent” (Kuhnil Pharmaceutical Co., Ltd., priority 1993, dated 1997):
≈ marks a conversion by molar mass, not a printed value.

How the values were obtained:
[1] = test system: L1210 cells; experiment: Cytotoxic activity against L1210 cells; format: cell-based; settings: Mus musculus; L1210 cells, 48 hours, 37° C.; read-out: ED50, cytotoxic activity against L1210
Experimental: To obtain L1210 cells in a logarithmic phase for cytotoxic activity test, in a 250 ml Erlenmeyer flask with a screw cap including Fisher medium warmed to 36° to 37° C. L1210 cells were adjusted to a concentration of 2-3×10^5 cells/ml and then cultured, before 24 hours from the beginning of experiment. Then, the culture solution thus obtained was suspended to prepare a L1210 cell suspension having a concentration of about 0.8-1.0×10^6 cells/ml. Test sample was dissoved in ethanol or dimethylsulfoxide in a certain concentration just before the experiment. 0.1 ml of the sample solution was diluted 10 times with 0.9 ml of a fresh medium. To each screw-capped test tube were added 100, 50, 25 μl, respectively, of the sample dilutions and then added 5 ml of the cell suspension (5×10^4 cells/ml) prepared above to use as the test group. To the test tubes for the control group (2√n: n=number of the samples), only 5 ml of the cell suspension was added. All test tubes were cultured for 48 hours in a CO2 incubator at 37° C. and then the number of cells was counted using a haemacytometer.
(§1) The ED50 value is defined as a concentration (μg/ml) of the sample which inhibits the growth of cancer cells by 50% of the control group and determined according to a method described in NIC's mannual (NIC=National Cancer Institue, U.S.A.). The growth rate Y(%) of cells in the presence of the test sample in each concentration was calculated according to the followign equation: […]
(§2) In the above equation, T means the average cell number per ml in the test group after incubation for 48 hours in the presence of the test samples in each concentration, C means the average cell number per ml in the control group after incubation for 48 hours, and Co means the average cell number per ml in the control group at the beginning of incubation. The Y(%) value at each concentration and log10 value of each concentration were obtained and the regression curve was constructed according to the following equation from those obtained values. In this case, when all the Y(%) value obtained at each concentration is greater than 55% or lower than 45%, the experiment was repeatedly conducted.
(§3) To construct the regression curve Y=A+BX the values A and B were obtained using the following equation. [formula]
(§4) In the above, the value N is the number of selected points which is greater than 2 and lower than, or identical with, the number of cencentration of the test sample, Xi is log(concentration) i, and Yi is the growth ratio at (concentration)i. The value of ED50 was obtained for those obtained slope and intercept.

[2] = test system: A549 cancer cells; experiment: Cytotoxic activity against A549 cancer cells (sulforhodamin B method); format: cell-based; settings: Homo sapiens; A549 cells, SRB method, 48 hours; read-out: ED50, cytotoxic activity against A549
Experimental: The cytotoxic activity against A549 cancer cells was determined using a method for measuring sulforhodamin B (SRB), which was developed in the year 1989 by NIC for measuring anticancer activity of the drug in vitro. For the experiment, cells under subculturing were separated from the attached surface with trypsin-CDTA solution and then dispensed into a 24-well flat-bottom microplate (Falcon) so that the number of cells per well is 8×10^4 (A549). The microplate was incubated in a CO2 incubator for 24 hours to attach the dispensed cells to bottom. The medium was removed with aspirator. Then, 100 μl of the solution of the test compounds diluted in a log-dose of 6 kinds of concentration was added to each well containing cells, in a multiple of 3. The microplate was incubated for further 48 hours. In addition, the diluted solution of the test compounds above was filtered through a 0.22 μm filter, before addition to the cells, to keep the experiment under sterilized condition. The cells were incubated with the test compounds for 48 hours and then the medium was removed from each well. 100 μl of 10% trichloroacetic acid (TCA) was added to each well and then the plate was allowed to stand at 4° C. for one hour to fix the cells to the bottom of plate. After fixing the cells, the plate was washed 5 to 6 times with water to completely remove any remaining TCA solution and then dried at room temperature until water is no longer present. To the completely dried plate was added the dying solution of 0.4% SRB dissolved in 1% acetic acid in an amount of 250 μl per well to stain the cells for 30 minutes and then the plate was washed again 5 to 6 times with 1% acetic acid solution to remove the remaining SRB which is not bound to the cells. The stained cell plate was dried again at room temperature. Then, the dying solution was carefully dissolved in a certain amount of 10 mM Tris so that the O.D. value in the control group at 520 nm is 0.8-1.0 Å (optical density), and the optical density at 520nm was determined. The ED50 value was obtained from the determined optical density. To calculate the activity of the drug against cancer cells, the number of cells (Tz) at the beginning of the addition of drug, the number of cells (C) after incubation with the medium in the absence of drug for 48 hours and the number of cells (T) after incubation in the presence of drugs at each concentration for 48 hours were determined.
The anticancer activity of the test compounds was determined form the following equations. Specifically, in the […] the equation (T-Tz)/(C-Tz)×100 was used and in the case of Tz<T the equation (T-Tz)/Tz×100 was used. Then the IC50 value wich is the concentration of drug which inhibits the growth of cancer cells by 50% was calcualted from the above calculated values using a data regressive function of LOTUS programme and the cytotoxic activities of the test compounds were compared with each other.

[3] = test system: K-562 cells; experiment: Cytotoxic activity against K-562 cells; format: cell-based; settings: Homo sapiens; K562 cells, 48 hours, 37° C.; read-out: ED50, cytotoxic activity against K562
Experimental: As in the test for the cytotoxic activity against L1210 cells, the test samples were dissoved in ethanol or dimethylsulfoxide in a certain concentration. 0.1 ml of the sample solution was mixed with 0.9 ml of a fresh medium to prepare the dilutions. To each two test tubes having a screw cap were added 100, 50, 25 μl, respectively, of the sample dilutions by means of a micropipet. To each test tube for the test group and the control group (2√n: n=number of the samples) was added 5 ml of the dilutions of HL-60 cells and K-562 cells which were cultured and activated before 24 hours from the beginning of experiment and then diluted in a concentration of 1×10^5 cells/mi. All test tubes were cultured for 48 hours in a CO2 incubator at 37° C. and then the number of cells was counted using a haemacytometer.
as §1, §2, §3, §4

[4] = test system: S-180 sarcoma cells; experiment: Animal experiment using Sarcoma S-180 cells (survival of mouse); format: in vivo, male ICR mouse; settings: ip, S-180 ICR mouse, comparative drug, 0.5 mg/kg/day (1.2 μmole)
Experimental: In this experiment, healthy male ICR mouse weighing 20 to 25 g were used as test animal and were fed with water and feed without any restriction in the chamber controlled at the temperature of 23° to 24° C. As the feed, the antibiotic-free feed for mouse was used.
S-180 cells which were incubated for 7 days within abdominal cavity of ICR mouse were separated together with ascites. To the separated cells was added sterilized cold physiological saline and the mixture was centrifuged with 400×g for 2 minutes to separate the cell precipitate. The separated cell precipitate was suspended again in sterilized cold physiological saline and then centrifuged to remove the supernatant. Only S-180 cells were taken, excluding any red bllod cells incorporated therein, washed three times with the same method as above, and then suspended to obtain the cell suspension in concentration of 10^7 cells/ml by counting the number of cells with a haemacytometer. Each 0.1 ml of this cell suspension was transplanted in an abdominal cavity.
After 24 hours from the transplantation, mouse were divided so that each group contains 8 to 9 mouse. The test sample was dissolved in a predetermined amount of dimethylsulfoxide to prepare the stock solution which was stored at 4° C. 30 μl of the stock solution was taken and then mixed with 1.5 ml of physiological saline. 0.1 ml of this mixture was intraperitoneally injected to the test animal. To the control group, 2% dimethylsulfoxide-physiological saline solution was injected. Meanwhile, doxorubicin which is used as the comparative drug was dissolved in 2% dimethylsulfoxide-physiological saline solution and then injected in an amount of 0.5 mg(titer)/kg. The schedule for injection comprises a total of 7 to 8 injections in the manner that after the transplantation of cancer cells 0.1 ml of the test sample per a day is administered for 2 to 4 days followed by the rest for one day. The survival rate was calculated on the basis of the date on which all of one control group is died (approximately 18 to 20 days). The survival rate (T/C, %) was calculated by the following equation as proposed in NIC's protocol: [formula]

Structure (SMILES) | IC50 [1] [µg/mL] | IC50 [2] [µg/mL] | IC50 [3] [µg/mL] | responders at 0.5 mg/kg/day ([4]; 1200 h, read-out: Number of mouse survived for 50 days (converted)) [%] | response vs control in vivo at 0.5 mg/kg/day ([4]; read-out: T/C) [%]
CCCCCC(O)C1=CC(=O)c2c(O)ccc(O)c2C1=O (centres unmarked) [2-(1-hydroxyhexyl)-5,8-dihydroxy-1,4-naphthoquinone] | 0.03 (≈ 0.103 µM) | 1.1 (≈ 3.79 µM) | 0.02 (≈ 0.0689 µM) |  | 
CCCCCC(O)C1=CC(=O)c2c(OC)ccc(OC)c2C1=O (centres unmarked) [2-(1-hydroxyhexyl)-5,8-dimethoxy-1,4-naphthoquinone] | 0.3 (≈ 0.942 µM) | 0.9 (≈ 2.83 µM) | 0.6 (≈ 1.88 µM) |  | 
CCCCCCCC(O)C1=CC(=O)c2c(O)ccc(O)c2C1=O (centres unmarked) [2-(1-hydroxyoctyl)-5,8-dihydroxy-1,4-naphthoquinone] | 0.07 (≈ 0.22 µM) | 0.4 (≈ 1.26 µM) | 0.2 (≈ 0.628 µM) |  | 
CCCCCCCC(O)C1=CC(=O)c2c(OC)ccc(OC)c2C1=O (centres unmarked) [2-(1-hydroxyoctyl)-5,8-dimethoxy-1,4-naphthoquinone] | 1 (≈ 2.89 µM) | 7.5 (≈ 21.6 µM) | 2.1 (≈ 6.06 µM) |  | 
CCCCC(O)C1=CC(=O)c2c(O)ccc(O)c2C1=O (centres unmarked) [2-(1-hydroxypentyl)-5,8-dihydroxy-1,4-naphthoquinone] | 0.04 (≈ 0.145 µM) | 0.5 (≈ 1.81 µM) | 0.08 (≈ 0.29 µM) |  | 
CCCCC(O)C1=CC(=O)c2c(OC)ccc(OC)c2C1=O (centres unmarked) [2-(1-hydroxypentyl)-5,8-dimethoxy-1,4-naphthoquinone] | 0.1 (≈ 0.329 µM) | 6.4 (≈ 21 µM) | 1.1 (≈ 3.61 µM) |  | 
CCCCCCCCCCCCC(O)C1=CC(=O)c2c(OC)ccc(OC)c2C1=O (centres unmarked) [2-(1-hydroxytridecyl)-5,8-dimethoxy-1,4-naphthoquinone] | 1.8 (≈ 4.32 µM) | 2.8 (≈ 6.72 µM) | 2.3 (≈ 5.52 µM) |  | 
COc1ccc(OC)c2c1C(=O)C=C(C(CCC(C)C)OC)C2=O (centres unmarked) [2-(1-methoxy-4-methylpentyl)-5,8-dimethoxy-1,4-naphthoquinone] | 0.2 (≈ 0.602 µM) | 5.6 (≈ 16.8 µM) | 2.1 (≈ 6.32 µM) |  | 
CCCCCCCCCC(OC(=O)CCCCCCC)C1=CC(=O)c2c(O)ccc(O)c2C1=O (centres unmarked) [2-(1-octanoyloxydecyl)-5,8-dihydroxy-1,4-naphthoquinone] | 0.9 (≈ 1.9 µM) | > 20 | > 20 |  | 
COc1cccc2c1C(=O)c1c(O)c3c(c(O)c1C2=O)C[C@@](O)(C(=O)CO)C[C@@H]3O[C@H]1C[C@H](N)[C@H](O)[C@H](C)O1 [Doxorubicin, reference compound] |  |  |  | 44.4 | 230
